Results from PMC8231969, “Characterization of Two NMN Deamidase Mutants as Possible Probes for an NMN Biosensor” (International Journal of Molecular Sciences, 2021).
Like-named read-outs stand apart in the source and are kept apart here.

How the values were obtained:
WT PncC (NMN deamidase) = system: T1, WT PncC (NMN deamidase); assay: Fluorescence-based thermal shift binding assay, wild-type PncC; parameters: species or system E. coli; details: 1 mM NMN
T1 construct: made in house; host or cells: E. coli BL21(DE3)
Method: (§1) Protein melting temperature (Tm) was determined by fluorescence-based thermal shift assay using fluoroprobe SYPRO Orange dye (Invitrogen, Waltham, MA, USA). The assay was performed in a RotorGene 3000 real-time PCR (Corbett, Biocompare, San Francisco, CA, USA). The assay mixture contained 50 mM Hepes/NaOH, pH 7.5, 300 mM NaCl, 1 mM TCEP, 1 μM protein, Sypro orange at 10-fold dilution from a 5000-fold stock, and the various ligands at the tested concentrations, in a final volume of 25 μL. The mixtures were pre-heated at 40 °C for 5 s, then heated to 50 °C in 1 s, and finally heated from 50 to 99 °C with a heating-up rate of 0.5 °C every 5 s. The fluorescence intensity was measured with Ex/Em: 470/585 nm. The melting temperature was determined by taking the maximum point of the slope-derivative peak. Kd values were determined by plotting the percentage of unfolded proteins as a function of nucleotide concentration at a fixed temperature, after normalization of the unfolding curves. Fitting of the data was performed using the equations reported in [34]. Three independent experiments were carried out and values were reported as the means ± standard deviation.

S29A PncC [1] = target: T2, S29A PncC (Escherichia coli, UniProt P0A6G3, S29A); assay: biochemical; type: binding, E. coli
T2 construct: made in house; host or cells: E. coli BL21(DE3)

Y56A PncC = system: T3, Y56A PncC; assay: Fluorescence-based thermal shift binding assay, Y56A PncC; parameters: species or system E. coli
T3 construct: made in house; host or cells: E. coli BL21(DE3)
Method: as §1

K61Q PncC [2] = target: T4, K61Q PncC (Escherichia coli, UniProt P0A6G3, K61Q); assay: biochemical; type: binding, E. coli
T4 construct: made in house; host or cells: E. coli BL21(DE3)

R142A PncC = system: T5, R142A PncC; assay: Fluorescence-based thermal shift binding assay, R142A PncC; parameters: species or system E. coli
T5 construct: made in house; host or cells: E. coli BL21(DE3)
Method: as §1

S29A PncC [3] = target: T2, S29A PncC; type: binding, E. coli
Text: (§2) Experimental data were processed using the OriginPro 8.0 (OriginLab Corporation, Northampton, MA, USA). A non-linear curve analysis (Hill1 plot) was used for plotting the F0/F values in function of the metabolite concentration, to obtain the Kd value.

K61Q PncC [4] = target: T4, K61Q PncC; type: binding, E. coli
Method: as §2
Percentage of the K61Q protein that would exist in complex with NMN in a cellular setting was calculated based on the Kd value, by using the equation: %=100/1+Kd/[NMN]

[5] = system: glutamine binding protein (GlnBP); details: GlnBP 3 µM, 96 µM nucleotide
Method: Steady-state measurements were performed using an ISS_K2 fluorometer (ISS, Urbana-Champaign, IL, USA), equipped with a one-cell temperature-controlled sample holder. […] Excitation and emission slit widths were fixed at 0.5 and 1.0 nm, respectively. […] The nucleotides were added to reach the indicated final concentration (from 0.18 to 96 µM) with an incubation interval of 10 min. Triplicate readings were done for each experimental point. Experiments were repeated three times (for NMN and NaMN) or twice (for all the other metabolites). Controls experiments were performed using the E. coli Glutamine Binding Protein (GlnBP, 3µM), with increasing concentration of NMN or NaMN, at the same conditions.
Percentages of reduction of fluorescence intensities compared to buffer, were calculated as follow: (normalized fluorescence in presence of analyte at a given [µM]/normalized fluorescence in presence of corresponding volume of buffer) × 100.

T4 sequence (P0A6G3 whole entry K61Q): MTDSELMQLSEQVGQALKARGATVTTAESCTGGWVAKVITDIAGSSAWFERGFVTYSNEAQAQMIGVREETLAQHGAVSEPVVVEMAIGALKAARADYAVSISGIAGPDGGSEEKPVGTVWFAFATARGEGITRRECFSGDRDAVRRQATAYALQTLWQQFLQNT
T2 sequence (P0A6G3 whole entry S29A): as the sequence (P0A6G3 whole entry K61Q) above, with S29A, Q61K counted along it

SMILES | S29A PncC fluorescence quenching (%) vs buffer (S29A PncC [3]; nucleotide 0.185 µM) | S29A PncC fluorescence quenching (%) vs buffer (S29A PncC [3]; nucleotide 0.375 µM) | S29A PncC fluorescence quenching (%) vs buffer (S29A PncC [3]; nucleotide 0.75 µM) | S29A PncC fluorescence quenching (%) vs buffer (S29A PncC [3]; nucleotide 3 µM) | S29A PncC fluorescence quenching (%) vs buffer (S29A PncC [3]; nucleotide 6 µM) | S29A PncC fluorescence quenching (%) vs buffer (S29A PncC [3]; nucleotide 12 µM) | S29A PncC fluorescence quenching (%) vs buffer (S29A PncC [3]; nucleotide 24 µM) | S29A PncC fluorescence quenching (%) vs buffer (S29A PncC [3]; nucleotide 48 µM) | K61Q PncC fluorescence quenching (%) vs buffer (K61Q PncC [4]; nucleotide 0.185 µM) | K61Q PncC fluorescence quenching (%) vs buffer (K61Q PncC [4]; nucleotide 0.375 µM) | K61Q PncC fluorescence quenching (%) vs buffer (K61Q PncC [4]; nucleotide 0.75 µM) | K61Q PncC fluorescence quenching (%) vs buffer (K61Q PncC [4]; nucleotide 1.5 µM) | K61Q PncC fluorescence quenching (%) vs buffer (K61Q PncC [4]; nucleotide 3 µM) | K61Q PncC fluorescence quenching (%) vs buffer (K61Q PncC [4]; nucleotide 6 µM) | K61Q PncC fluorescence quenching (%) vs buffer (K61Q PncC [4]; nucleotide 12 µM) | K61Q PncC fluorescence quenching (%) vs buffer (K61Q PncC [4]; nucleotide 24 µM) | K61Q PncC fluorescence quenching (%) vs buffer (K61Q PncC [4]; nucleotide 48 µM) | quenching of fluorescence of GlnBP [5] | also measured
NC(=O)c1ccc[n+]([C@@H]2O[C@H](COP(=O)([O-])O)[C@@H](O)[C@H]2O)c1 [NMN, nicotinamide mononucleotide] | 0.48% | 0.58% | 2.58% | 17.42% | 17.55% | 27.06% | 37.52% | 46.79% | 1.09% | 1.84% | 3.19% | 4.87% | 6.26% | 8.11% | 12.12% | 20.07% | 38.03% | 4.3% | Tm (+NMN) (WT PncC (NMN deamidase)): 92.2 °C; ΔTm (WT PncC (NMN deamidase)): 6.1 °C; Tm (+NMN) (S29A PncC [1]; S29A PncC, 1 mM NMN): 95.5 °C; ΔTm at 1000 µM (S29A PncC [1]; read-out: ΔTm): 10 °C; Tm (+NMN) (Y56A PncC; 1 mM NMN): 83.6 °C; Effect of NMN on Tm (Y56A PncC; 1.0 mM NMN): not affected; Tm (+NMN) (K61Q PncC [2]; K61Q PncC, 1 mM NMN): 86.2 °C; ΔTm at 1000 µM (K61Q PncC [2]; read-out: ΔTm): 18.7 °C; Tm (+NMN) (R142A PncC; 1 mM NMN): 52.4 °C; Effect of NMN on Tm (R142A PncC; 1.0 mM NMN): not affected; Hill coefficient (nH) (S29A PncC [3]; S29A PncC, Trp fluorescence): 0.98± 0.1; Hill coefficient (nH) (K61Q PncC [4]; K61Q PncC, Trp fluorescence): 1.3±0.2
O=C(O)c1ccc[n+]([C@@H]2O[C@H](COP(=O)([O-])O)[C@@H](O)[C@H]2O)c1 [NaMN, nicotinic acid mononucleotide] | 1.79% | 2.56% | 6.47% | 30.74% | 30.87% | 40.52% | 47.93% | 52.28% | 0.71% | 1.11% | 2.05% | 2.12% | 2.82% | 2.80% | 4.14% | 4.9% | 7.14% | 4.3% | Kd (thermal shift) (K61Q PncC [2]; K61Q PncC, at 70 °C): not possible to determine Kd; S29A PncC fluorescence quenching (%) vs buffer (S29A PncC [3]; nucleotide 1.5 µM): 20.83%; apparent Kd (Trp fluorescence) (K61Q PncC [4]; K61Q PncC, at 25 °C): not possible to determine Kd; K61Q PncC fluorescence quenching (%) vs buffer (K61Q PncC [4]; nucleotide 96 µM): 10.68%
